Literature values as cited in patent publication US5945105A, “Peptides of the antigen Sm-D and their use, in particular for the diagnostics of systemic lupus erythematosus (SLE)” (Imtec Immundiagnostika GmbH, priority 1995, dated 1999).

Tested on: anti-SmD antibody-positive sera / SLE sera
Conditions: cited from earlier work; for anti-SmD antibody-positive sera that reacted with the peptide: 18 anti-SmD antibody-positive sera (immuno blotting); for positive reactions in the ELISA, SLE sera: 165 SLE sera

Row | Substance | anti-SmD antibody-positive sera that reacted with the peptide [%] | positive reactions in the ELISA, SLE sera [%]
1 | 1-20: first region of the SmD protein, amino acids 1 through 20 (Barakat et al.) (MKLVRFLMKLSHETVTIELK; UniProt P62314 1-20, looked up, fragment) [Peptide 1-20] | 67 | 59
2 | 44-67: second region of the SmD protein, amino acids 44 through 67 (Barakat et al.) (KMTLKNREPVQLETLSIRGNNIRY; UniProt P62314 44-67, looked up, fragment) [Peptide 44-67] | 89 | 37
3 | 97-119: third region of the SmD protein, amino acids 97 through 119 (Barakat et al.) (GRGRGRGRGRGRGRGRGRGGPRR; UniProt P62314 97-119, looked up, fragment) [Peptide 97-119] | 33 | 1
